# According to US12215132B2, “Methods, compositions and uses thereof for reversing sarcopenia” (The Trustees of Columbia University in the City of New York, priority 2020, dated 2025):
# “Also recorded” adds a separate entry of the source. Read-outs that look alike come from different tables or passages of the source.
# Assays:
# [1] = tested on: dexamethasone-treated mice
# Protocol: It was also further examined whether an osteocalcin treatment might preserve muscle function and/or muscle mass in a clinically relevant mouse model of sarcopenia.
# In another recognized model of sarcopenia, the efficacy of osteocalcin has been tested. Specifically, dexamethasone delivered by pumps ([…]) for 28 days has been used in mice. Another group of mice received Dexamethasone plus osteocalcin also delivered by pumps.
# FIG. 9A and FIG. 9B show exemplary graphs pf exemplary modeling sarcopenia in mice.
# animal models = conditions: in vivo
# [2] = tested on: young and 12 to 15 month-old mice; conditions: data of WO 2016/081728, cited from earlier work
# Liver Factor 1 = Liver Factor 1 production during exercise; format: in vivo
# From the text: OCN signaling in the liver is required for exercise capacity (see FIG. 6). OCN enhances Liver Factor 1 production during exercise (see FIG. 7). Liver Factor 1 mediates OCN regulation of exercise capacity (see FIG. 8).
# [3] = dexamethasone-treated mice, co-treatment with test substance
# [4] = one-month chronic infusion of dexamethasone, mice
compound,measurement,setting,value
"N#Cc1ccc(N2CCC[C@@H]2[C@@H](O)C(F)(F)F)cc1C(F)(F)F [VK5211, reference compound]",muscle mass,[1]; [3],fully restored muscle mass to normal levels
same,running capacity / exercise capacity,[1]; [3],modest effect
"C[C@@H]1C[C@H]2[C@@H]3CCC4=CC(=O)C=C[C@]4(C)[C@@]3(F)[C@@H](O)C[C@]2(C)[C@@]1(O)C(=O)CO [dexamethasone, reference compound]",ability to run on a treadmill,"[1]; mouse, in vivo",decreased
same,muscle mass,"[1]; mouse, in vivo",decreased
same,decrease of gastrocnemius muscle mass,[1]; [4],30%
same,reduction of running capacity,[1]; [4],50%
"osteocalcin: Osteocalcin, a bone-derived hormone; small (46-50 amino acid residues) bone specific protein (YLYQWLGAPVPYPDPLEPRREVCELNPDCDELADHIGFQEAYRR; listed as Homo sapiens)",negative side-effects,animal models,safe with no recorded negative side-effects
same,exercise capacity,[2]; 12 to 15 month-old mice,confers to 15 months-old mice exercise capacity of 3 month-old mice; also recorded: confers to 12 to 15 month-old mice the exercise capacity of 3 month-old mice
same,exercise capacity,[2]; young mice,increases the exercise capacity
same,IL-6,[1]; Dex-induced sarcopenia,favors IL-6
same,muscle function versus muscle mass; comparison with VK5211,[1]; Dex-induced sarcopenia,outperforms
same,muscle function versus muscle mass; comparison with VK5211,"[1]; Dex-induced sarcopenia, listed as OCN",mainly targets muscle function
same,muscle mass,"[1]; dexamethasone-treated mice, co-treatment with test substance, listed as OCN",marginal effect
same,off-target effects,"[1]; mouse, in vivo",no overt off-target effects
same,deleterious effect of dexamethasone on muscle function,[1]; osteocalcin given to mice that had already received dexamethasone for two weeks,partially revert
same,Liver Factor 1 production,Liver Factor 1,enhances
